These are literature values, as cited in patent US20080125428A1, “Cancer Treatment Method” (priority 2004, published 2008).

The test system of this data set is tumor cells overexpressing EGFR or erbB2. Particulars: Rusnak et al., 2001b, Xia et al., 2002.

Regarding `CS(=O)(=O)CCNCc1ccc(-c2ccc3ncnc(Nc4ccc(OCc5cccc(F)c5)c(Cl)c4)c3c2)o1` [GW572016, N-{3-chloro-4-[(3-fluorobenzyl)oxy]phenyl}-6-[5-({[2-(methanesulphonyl)ethyl]amino}methyl)-2-furyl]-4-quinazolinamine], the “kinase inhibition in human xenograft studies” value is “dose-dependent kinase inhibition”. The “selectivity for tumor cells overexpressing EGFR or erbB2” value (human xenograft studies) is recorded as “selectively inhibits tumor cells overexpressing EGFR or erbB2”.
